Source: publication PMC9287172, “Molecular basis for the regulation of human glycogen synthase by phosphorylation and glucose-6-phosphate” (Nature Structural & Molecular Biology, 2022)
Each block holds one molecule with its values, some of them ahead of it.

B1: human glycogen synthase GYS1 (aa 1–737), untagged, as in the GYS1–GYG1^ΔCD complex (enzyme, UniProt P13807 1-737, looked up)
chain: MPLNRTLSMSSLPGLEDWEDEFDLENAVLFEVAWEVANKVGGIYTVLQTKAKVTGDEWGDNYFLVGPYTEQGVRTQVELLEAPTPALKRTLDSMNSKGCKVYFGRWLIEGGPLVVLLDVGASAWALERWKGELWDTCNIGVPWYDREANDAVLFGFLTTWFLGEFLAQSEEKPHVVAHFHEWLAGVGLCLCRARRLPVATIFTTHATLLGRYLCAGAVDFYNNLENFNVDKEAGERQIYHRYCMERAAAHCAHVFTTVSQITAIEAQHLLKRKPDIVTPNGLNVKKFSAMHEFQNLHAQSKARIQEFVRGHFYGHLDFNLDKTLYFFIAGRYEFSNKGADVFLEALARLNYLLRVNGSEQTVVAFFIMPARTNNFNVETLKGQAVRKQLWDTANTVKEKFGRKLYESLLVGSLPDMNKMLDKEDFTMMKRAIFATQRQSFPPVCTHNMLDDSSDPILTTIRRIGLFNSSADRVKVIFHPEFLSSTSPLLPVDYEEFVRGCHLGVFPSYYEPWGYTPAECTVMGIPSISTNLSGFGCFMEEHIADPSAYGIYILDRRFRSLDDSCSQLTSFLYSFCQQSRRQRIIQRNRTERLSDLLDWKYLGRYYMSARHMALSKAFPEHFTYEPNEADAAQGYRYPRPASVPPSPSLSRHSSPHQSEDEEDPRNGPLEEDGERYDEDEEAAKDRRNIRAPEWPRRASCTSSTSGSKRNSVDTATSSSLSTPSEPLSPTSSLGEERN
modifications: multiply phosphorylated (intact mass spectrometry); phosphorylated Ser641 (site 3a) modelled in the inhibited state
notes: human glycogen synthase GYS1 (muscle isoform), amino acids 1–737, codon-optimized synthetic gene; Homotetramer (dimer of dimers) in the cryo-EM structures; source: Sf9 cells, coexpressed with His6-GST-GYG1 294–350 from a bicistronic construct, purified (Ni-Sepharose, Superose 6)

Legend:
Glycogen synthase (GYS1) [1] = target: T1, Glycogen synthase (GYS1) (Homo sapiens, UniProt P13807); assay: cryo-EM structure at […] Å with Glc6P and UDP-glc added (UDP-glc hydrolysed); format: binding
T1 construct: full-length GYS1 (aa 1–737) coexpressed with GYG1 aa 294–350 (GYS1–GYG1^ΔCD); with GYG1 (aa 294–350)
T1 sequence (P13807 1-737): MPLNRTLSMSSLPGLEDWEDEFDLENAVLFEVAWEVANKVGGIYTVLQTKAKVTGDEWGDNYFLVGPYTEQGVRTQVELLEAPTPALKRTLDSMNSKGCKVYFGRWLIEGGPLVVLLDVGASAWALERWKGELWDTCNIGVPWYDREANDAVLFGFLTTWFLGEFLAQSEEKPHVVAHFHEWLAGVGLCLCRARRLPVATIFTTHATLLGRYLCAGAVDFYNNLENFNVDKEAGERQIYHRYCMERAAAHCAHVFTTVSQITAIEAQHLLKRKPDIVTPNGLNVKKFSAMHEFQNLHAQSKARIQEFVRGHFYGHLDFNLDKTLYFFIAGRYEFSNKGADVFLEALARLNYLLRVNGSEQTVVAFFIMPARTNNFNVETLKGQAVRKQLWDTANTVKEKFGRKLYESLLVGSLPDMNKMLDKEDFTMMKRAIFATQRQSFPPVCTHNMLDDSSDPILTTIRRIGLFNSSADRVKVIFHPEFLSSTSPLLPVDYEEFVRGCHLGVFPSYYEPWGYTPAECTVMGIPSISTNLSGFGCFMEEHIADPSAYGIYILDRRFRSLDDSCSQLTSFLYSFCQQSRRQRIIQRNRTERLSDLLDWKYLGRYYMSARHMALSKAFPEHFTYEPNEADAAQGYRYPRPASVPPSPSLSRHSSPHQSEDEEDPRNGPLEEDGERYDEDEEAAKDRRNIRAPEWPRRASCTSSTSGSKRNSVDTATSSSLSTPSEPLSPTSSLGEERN
T1 sequence (P46976 294-350 partner): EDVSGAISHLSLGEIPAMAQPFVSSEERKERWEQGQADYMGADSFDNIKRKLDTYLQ

Glycogen synthase (GYS1) [2] = target: T1, Glycogen synthase (GYS1); assay: cryo-EM structures (7Q13 […] Å; also 7Q12, 7Q0S); thermal shift titration, AC50 of PP1c-dephosphorylated GYS1–GYG1^ΔCD; format: binding
PTG (PPP1R3C) [3] = target: T2, PTG (PPP1R3C) (Homo sapiens, UniProt Q9UQK1); assay: thermal shift assay titration (AC50); format: binding
T2 construct: CBM21 domain, aa 134–259
T2 sequence (Q9UQK1 134-259): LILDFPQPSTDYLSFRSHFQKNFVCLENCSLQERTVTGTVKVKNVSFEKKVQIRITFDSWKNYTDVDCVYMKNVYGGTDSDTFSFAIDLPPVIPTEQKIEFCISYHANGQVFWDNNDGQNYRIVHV

PTG (PPP1R3C) [4] = target: T2, PTG (PPP1R3C); assay: thermal shift assay (no Kd); format: binding
[5] = target: the molecule itself; assay: cryo-EM structure; GYS1–GYG1^ΔCD at 0.75 or 0.5 mg ml^-1 in 25 mM HEPES pH 7.5, 200 mM NaCl, 2.0 mM TCEP, 0.05% Tween-20; as purified (inhibited state), with 5 mM Glc6P (inhibited-like and activated states), with 5 mM Glc6P and 5 mM UDP-Glc (activated state); D2 symmetry
[6] = target: T3, GYS1–GYG1^FL complex (full-length human GYS1 with full-length glucosylated GYG1) (human, UniProt P13807 1-737; P46976-1 1-350, heterogeneous phosphorylation | glucosylated (GYG1 is attached with a glucose chain), heterogeneous); assay: pull-down; His-PPP1R3C (1.0 mg ml^-1) preincubated with GYS1–GYG1 complex (0.25 mg ml^-1) or GYG1 (0.5 mg ml^-1) for 30 min at 4 °C, captured on Talon resin in 25 mM HEPES pH 7.5, 100 mM NaCl, 1 mM TCEP, 0.2% Tween-20; wash with 10 mM imidazole; SDS-PAGE, Coomassie; settings: both partners purified
T3 construct: human glycogen synthase GYS1, full length; human glycogenin-1 (GYG1), isoform GN-1L, UniProt P46976-1, full length; source: Sf9 cells, coexpressed, purified (Ni-Sepharose, Superose 6, TEV treatment); not shown: His6, N-terminal, cleaved
T3 sequence (looked up) 1: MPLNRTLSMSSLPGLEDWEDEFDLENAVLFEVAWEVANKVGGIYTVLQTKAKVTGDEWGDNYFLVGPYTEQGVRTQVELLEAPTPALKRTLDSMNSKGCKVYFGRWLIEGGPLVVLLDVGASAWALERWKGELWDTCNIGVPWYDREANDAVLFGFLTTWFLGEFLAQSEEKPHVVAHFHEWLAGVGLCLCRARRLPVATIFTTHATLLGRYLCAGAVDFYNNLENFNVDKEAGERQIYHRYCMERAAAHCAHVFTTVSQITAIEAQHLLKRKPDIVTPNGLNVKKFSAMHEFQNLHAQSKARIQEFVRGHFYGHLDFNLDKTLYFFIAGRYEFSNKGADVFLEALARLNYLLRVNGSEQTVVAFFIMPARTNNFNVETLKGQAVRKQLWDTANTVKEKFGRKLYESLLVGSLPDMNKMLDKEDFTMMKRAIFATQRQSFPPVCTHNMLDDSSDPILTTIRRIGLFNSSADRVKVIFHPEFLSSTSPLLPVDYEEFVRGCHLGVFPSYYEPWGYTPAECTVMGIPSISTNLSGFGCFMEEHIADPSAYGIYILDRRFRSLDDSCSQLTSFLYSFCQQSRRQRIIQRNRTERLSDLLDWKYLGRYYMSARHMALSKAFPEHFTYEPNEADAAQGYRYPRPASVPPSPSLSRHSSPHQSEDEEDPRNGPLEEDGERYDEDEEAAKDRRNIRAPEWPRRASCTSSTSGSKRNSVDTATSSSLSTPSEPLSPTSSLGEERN
T3 sequence (looked up) 2: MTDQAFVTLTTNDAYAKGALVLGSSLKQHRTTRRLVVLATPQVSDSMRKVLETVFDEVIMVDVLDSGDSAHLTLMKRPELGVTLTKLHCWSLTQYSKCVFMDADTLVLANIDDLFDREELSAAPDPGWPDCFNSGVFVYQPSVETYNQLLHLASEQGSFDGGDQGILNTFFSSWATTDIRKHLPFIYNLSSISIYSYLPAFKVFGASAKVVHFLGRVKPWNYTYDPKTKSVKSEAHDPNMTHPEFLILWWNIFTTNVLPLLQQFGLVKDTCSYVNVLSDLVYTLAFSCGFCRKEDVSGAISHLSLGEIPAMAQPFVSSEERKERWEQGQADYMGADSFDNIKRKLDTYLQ

[7] = target: B1; assay: cryo-EM structure; GYS1–GYG1^ΔCD at 0.75 or 0.5 mg ml^-1 in 25 mM HEPES pH 7.5, 200 mM NaCl, 2.0 mM TCEP, 0.05% Tween-20; as purified (inhibited state), with 5 mM Glc6P (inhibited-like and activated states), with 5 mM Glc6P and 5 mM UDP-Glc (activated state); D2 symmetry; settings: both partners purified

Molecule: OC[C@H]1OC(O)[C@H](O)[C@@H](O)[C@@H]1O (stereo partly shown) [GLC, glucose]
- cryo-EM structure at 3.0 Å with Glc6P and UDP-glc added (UDP-glc hydrolysed) (Glycogen synthase (GYS1) [1]): The hydrolysed glucose molecule formed multiple hydrogen bonds with the side chains of Arg211, Arg311, Glu510 and Tyr514

- AC50 (Glycogen synthase (GYS1) [2]): 1500 ± 200 µM
Molecule: O=P(O)(O)OC[C@H]1OC(O)[C@H](O)[C@@H](O)[C@@H]1O (stereo partly shown) [Glc6P, glucose-6-phosphate]

- AC50 (PTG (PPP1R3C) [3]): 2400 ± 600 µM
Molecule: OC[C@H]1O[C@H](O[C@H]2[C@H](O)[C@@H](O)[C@@H](O[C@H]3[C@H](O)[C@@H](O)[C@@H](O[C@H]4[C@H](O)[C@@H](O)[C@@H](O[C@H]5[C@H](O)[C@@H](O)[C@@H](O[C@H]6[C@H](O)[C@@H](O)[C@@H](O[C@H]7[C@H](O)[C@@H](O)C(O)O[C@@H]7CO)O[C@@H]6CO)O[C@@H]5CO)O[C@@H]4CO)O[C@@H]3CO)O[C@@H]2CO)[C@H](O)[C@@H](O)[C@@H]1O (stereo partly shown) [maltoheptaose]

Molecule: OC[C@H]1O[C@H](O[C@H]2[C@H](O)[C@@H](O)[C@@H](O[C@H]3[C@H](O)[C@@H](O)[C@@H](O[C@H]4[C@H](O)[C@@H](O)C(O)O[C@@H]4CO)O[C@@H]3CO)O[C@@H]2CO)[C@H](O)[C@@H](O)[C@@H]1O (stereo partly shown) [maltotetraose]
- thermal shift assay (no Kd) (PTG (PPP1R3C) [4]): Glycogen, debranched glycogen, maltotetraose and maltoheptaose increased the thermostability of PTG(CBM21)

Molecule: B1
- stoichiometry N [5]: 4

- binding result [6]: binds
B2: human PTG (PPP1R3C) aa 134–259, CBM21 domain construct, His-tagged (domain or fragment, UniProt Q9UQK1 134-259, looked up)
chain: LILDFPQPSTDYLSFRSHFQKNFVCLENCSLQERTVTGTVKVKNVSFEKKVQIRITFDSWKNYTDVDCVYMKNVYGGTDSDTFSFAIDLPPVIPTEQKIEFCISYHANGQVFWDNNDGQNYRIVHV
notes: The His6-tag is TEV-cleavable but was kept: the protein was captured on Talon resin by it; also called PTG(CBM21); His-PPP1R3C; source: cultured in autoinduction Terrific Broth, purified (Ni-Sepharose, Superdex 75); not shown: His6, N-terminal, kept

- stoichiometry N [7]: 1
B3: human GYG1 C terminus, aa 294–350 (GYG1^ΔCD) (domain or fragment, UniProt P46976-1 294-350, looked up)
chain: EDVSGAISHLSLGEIPAMAQPFVSSEERKERWEQGQADYMGADSFDNIKRKLDTYLQ
notes: human glycogenin-1 (GYG1), isoform GN-1L, UniProt P46976-1, amino acids 294–350, codon-optimized synthetic gene; Residues 317–349 were modelled in the cryo-EM map; The methods name MBP-His6, His6-GST and His6-GFP tags as tried; the results name His6-GST for the bicistronic constructs; also called GYG1 294–350; not shown: His6-GST, N-terminal, cleaved
